Among the test systems are NCI-H460 lung; A498 renal; UACC-257 melanoma; MDA-MB-231 breast; HOP-92 NSCLC; NCI-H226 lung; HCC-2998 colon; M14 melanoma.
What all share (experiment): NCI anticancer screen, dose series, 48 h

Consider 13 compounds from PubChem BioAssay (NCI).

Structures are written as SMILES.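 Grown in 96-well plates, cells were treated for 48 hours with each compound at five concentrations. Insufficient inhibition: endpoint recorded as highest concentration tested. Definition used: TGI = concentration required for complete inhibition of growth.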

`Cc1nn2c(C(=O)N/N=C/c3ccc([N+](=O)[O-])cc3)c(C)nc2s1`: the TGI with NCI-H460 lung is above 100 µM; with A498 renal, above 100 µM; in the assay with UACC-257 melanoma, above 100 µM; with MDA-MB-231 breast, 49.4 µM; in the assay with HOP-92 NSCLC it was above 100 µM; with NCI-H226 lung it was above 100 µM. In addition, the TGI with HCC-2998 colon and in the assay with M14 melanoma was above 100 µM throughout.

Turning to `NCCSCc1ccccc1Cl`, the TGI was above 100 µM in the assay on NCI-H460 lung; 96.2 µM in the assay on A498 renal; 51.9 µM in the assay on UACC-257 melanoma; above 100 µM with MDA-MB-231 breast; above 100 µM in the assay on HOP-92 NSCLC; above 100 µM in the assay with NCI-H226 lung. For the same compound, the TGI in the assay on HCC-2998 colon was 38.7 µM; with M14 melanoma, above 100 µM.

With `N#Cc1c(Cl)nc2ccccc2c1N=[N+]=[N-]`, the TGI came to 21.4 µM with NCI-H460 lung; 36.2 µM in the assay with A498 renal; 27.8 µM in the assay on UACC-257 melanoma; 3.62 µM in the assay with MDA-MB-231 breast; 3.32 µM in the assay with HOP-92 NSCLC; 33.1 µM in the assay on NCI-H226 lung. Moreover, the TGI is 14.4 µM in the assay with HCC-2998 colon and 6.48 µM in the assay with M14 melanoma.

As for `Cc1c(N/C=C(\C#N)C(=O)c2ccc(Cl)cc2)c(=O)n(-c2ccccc2)n1C`, the TGI in the assay on NCI-H460 lung, in the assay with A498 renal, in the assay with UACC-257 melanoma, in the assay on MDA-MB-231 breast, in the assay with HOP-92 NSCLC and in the assay with NCI-H226 lung was above 100 µM in each case. Besides, the TGI in the assay on HCC-2998 colon and in the assay with M14 melanoma was above 100 µM each time.

Take `CC(C)(C)OC(=O)c1ccc(NCC2=CC(=O)C=CC2=O)cc1`: the TGI with NCI-H460 lung is above 59.5 µM; in the assay on A498 renal, 30.9 µM; in the assay on UACC-257 melanoma, 24.9 µM; in the assay on MDA-MB-231 breast it was 21.6 µM; in the assay on HOP-92 NSCLC it was 4.4 µM; in the assay with NCI-H226 lung it was 40.5 µM. In addition, the TGI stood at 36.6 µM with HCC-2998 colon and 17.6 µM in the assay on M14 melanoma.

For the compound `CO[C@@H]1C[C@H]2N3CC[C@@]2(c2cc4c(cc2C3)OCO4)[C@H]2O[C@@H]12`, the TGI in the assay on NCI-H460 lung was above 100 µM; with A498 renal it was above 100 µM; in the assay on UACC-257 melanoma, above 100 µM; in the assay with MDA-MB-231 breast it was above 100 µM; with HOP-92 NSCLC, above 100 µM; in the assay with NCI-H226 lung, 4.59 µM. The TGI in the assay on HCC-2998 colon and in the assay with M14 melanoma was above 100 µM throughout.

Regarding `N#Cc1c(O)c(N=Nc2ccc(Cl)cc2)c(=O)n2c1[nH]c1ccccc12`, the TGI with NCI-H460 lung is above 100 µM; in the assay with A498 renal it was above 100 µM; in the assay on UACC-257 melanoma, above 100 µM; in the assay with MDA-MB-231 breast, above 100 µM; with HOP-92 NSCLC, 76.9 µM; with NCI-H226 lung, above 100 µM. For the same compound, the TGI in the assay with HCC-2998 colon and with M14 melanoma was above 100 µM throughout.

For `COc1ccc(/C=C2\Sc3nnc(CNc4ccc(Cl)cc4)n3N=C2c2cc(F)c(Cl)cc2Cl)cc1OC`, the TGI in the assay on NCI-H460 lung, in the assay with A498 renal, in the assay on UACC-257 melanoma, with MDA-MB-231 breast, in the assay with HOP-92 NSCLC and in the assay with NCI-H226 lung was above 100 µM throughout. Besides, the TGI in the assay on HCC-2998 colon and in the assay on M14 melanoma was above 100 µM each time.

With `CN(C)S(=O)(=O)n1cnc(CO)c1`, the TGI with NCI-H460 lung, in the assay with A498 renal, with UACC-257 melanoma, in the assay on MDA-MB-231 breast, with HOP-92 NSCLC and in the assay with NCI-H226 lung was above 100 µM throughout. The TGI in the assay on HCC-2998 colon and in the assay on M14 melanoma was above 100 µM each time.

As for `CCCCCCOc1ccc(C(=O)N(C)O)cc1`, the TGI is 30 µM in the assay on NCI-H460 lung; above 100 µM in the assay with A498 renal; above 100 µM in the assay with UACC-257 melanoma; above 100 µM in the assay on MDA-MB-231 breast; above 100 µM in the assay with HOP-92 NSCLC; 59.5 µM with NCI-H226 lung. The TGI was 99 µM in the assay with HCC-2998 colon and 39.3 µM with M14 melanoma.

`O=C(O)CN1CCN(CC(=O)N2CCN(C(=O)OCc3ccccc3)CC2)CCN(CC(=O)O)CCN(CC(=O)N2CCN(C(=O)OCc3ccccc3)CC2)CC1`: the TGI in the assay on NCI-H460 lung, in the assay on A498 renal, in the assay on UACC-257 melanoma, in the assay with MDA-MB-231 breast, with HOP-92 NSCLC and in the assay on NCI-H226 lung was above 100 µM in each case. For the same compound, the TGI in the assay with HCC-2998 colon and in the assay on M14 melanoma was above 100 µM throughout.

For `CC(C)(C)OC/C=C1\C(=O)O[C@H]2C[C@@H](O[Si](C)(C)C(C)(C)C)C[C@@H]12`, the TGI in the assay on NCI-H460 lung, in the assay with A498 renal, in the assay on UACC-257 melanoma, with MDA-MB-231 breast, in the assay with HOP-92 NSCLC and with NCI-H226 lung was above 100 µM in each case. Further, the TGI in the assay with HCC-2998 colon and in the assay on M14 melanoma was above 100 µM throughout.

Consider `COc1ccc2c(c1)CCCN2S(=O)(=O)c1ccccc1[N+](=O)[O-]`, for which the TGI is above 87.9 µM in the assay with NCI-H460 lung; above 78 µM in the assay on A498 renal; above 100 µM with UACC-257 melanoma; above 100 µM with MDA-MB-231 breast; 97.8 µM with HOP-92 NSCLC; above 96.2 µM in the assay on NCI-H226 lung. Further, the TGI in the assay on HCC-2998 colon was 84.5 µM; in the assay with M14 melanoma, above 92.8 µM.
